Measurements taken from a compilation of properties of binary mixtures (doi:10.1007/s10953-023-01258-3).

Assay: xn = mol fraction of the nth substance listed
Conditions: 101 kPa, x2 = 0

CS(C)=O + Cn1cc[n+](CCCN)c1.F[B-](F)(F)F
Conditions | viscosity [mPa·s]
288.15 K | 2.605
293.15 K | 2.318
298.15 K | 2.089
303.15 K | 1.886
308.15 K | 1.717
313.15 K | 1.575
318.15 K | 1.447
323.15 K | 1.341
333.15 K | 1.164
338.15 K | 1.097
343.15 K | 1.034
348.15 K | 0.981
353.15 K | 0.934
